Measured values published in patent publication US20230040279A1, “COMPOSITIONS HAVING PESTICIDAL UTILITY AND PROCESSES RELATED THERETO” (CORTEVA AGRISCIENCE LLC, priority 2019, published 2023).

What was measured:
[1] = tested on: Sweetpotato Whitefly (Bemisia tabaci, BEMITA); experiment: Sweetpotato Whitefly (SPW) foliar spray bioassay on cotton seedlings; type: in vivo; conditions: for Mean LC50 PPM: cotton seedlings sprayed at crawler emergence, 2-3 instar nymphs counted 7-9 days after treatment, Abbott-corrected % control; for % (percent increase in the Mean LC50 required compared to F1): relative to F1
Protocol: (§1) F1, CE1, CE2, CE3, and CE4 (2 mg each) were each dissolved in 2 mL of acetone/methanol (1:1) solvent, forming stock solutions of 1000 ppm for each test molecule. The stock solutions were diluted 5× with 0.025% Tween® 20 in water to obtain test solutions at 200 ppm for each test molecule. Subsequent 4× dilutions, in water containing 0.025% Tween® 20 and 10% acetone/methanol (1:1), were used to generate the desired concentrations for dose responses. A minimum of 5 concentrations of each test molecule were used for each assay.
Test solutions of Formula One and the Comparative Examples, prepared as described above, were tested against SPW using the following procedure.
Cotton seedlings grown in 3-inch pots, pruned so that only one true leaf remained, were used as test substrate. Adult B. tabaci were allowed to colonize these plants and lay eggs for 24 hours after which all adults were removed from the plants using compressed air. Plants were monitored for egg development and, when crawler emergence was underway (>25% emergence based on visual examination using a microscope), the plants were sprayed using the test solutions and methods described above for green peach aphids (GPA). Treated plants were held in a holding room at approximately 25° C. and ambient relative humidity (RH) prior to grading. Evaluation was conducted by counting the number of developed 2-3 instar nymphs per plant under a microscope 7-9 days after treatment. Percent control was measured using Abbott's correction formula (W. S. Abbott, “A Method of Computing the Effectiveness of an Insecticide” J. Econ. Entomol. 18 (1925), pp.265-267) as follows:
(§2) Corrected % Control=100*(X−Y)/X
where X=No. of live nymphs on solvent check plants and Y=No. of live nymphs on treated plants.

[2] = tested on: Green Peach Aphid (Myzus persicae, MYZUPE); experiment: Green Peach Aphid (GPA) foliar spray bioassay on cabbage seedlings; type: in vivo; conditions: for Mean LC50 PPM: cabbage seedlings, live aphids counted three days after treatment, Abbott-corrected % control; for % (percent increase in the Mean LC50 required compared to F1): relative to F1
Protocol: as §1
Test solutions of Formula One and the Comparative Examples, prepared as described above, were tested against GPA using the following procedure.
Cabbage seedlings grown in 3-inch pots, with 2-3 small (3-5 cm) true leaves, were used as test substrate. The seedlings were infested with 20-50 GPA (wingless adult and nymph stages) one day prior to chemical application. Four pots with individual seedlings were used for each treatment. A hand—held aspirator—type sprayer was used for spraying a solution to both sides of […] leaves until runoff. Reference plants (solvent check) were sprayed with the diluent only (0.025% Tween® 20 and 10% acetone/methanol (1:1) in water). Treated plants were held in a holding room for three days at approximately 25° C. and ambient relative humidity (RH) prior to grading. Evaluation was conducted by counting the number of live aphids per plant under a microscope three days after treatment. Percent control was measured using Abbott's correction formula (W. S. Abbott, “A Method of Computing the Effectiveness of an Insecticide” J. Econ. Entomol. 18 (1925), pp.265-267) as follows:
as §2
where X=No. of live aphids on solvent check plants and Y=No. of live aphids on treated plants. Bioassay 2: Sweetpotato Whitefly (Bemisia tabaci, BEMITA) (“SPW”).

Compound | Mean LC50 PPM [1] [PPM] | % (percent increase in the Mean LC50 required compared to F1) [1] [%] | Mean LC50 PPM [2] [PPM] | % (percent increase in the Mean LC50 required compared to F1) [2] [%]
CC(C(=O)N(C)c1cn(-c2cccnc2)nc1Cl)S(C)(=O)=O (stereo not drawn) [CE1, N-(3-chloro-1-(pyridin-3-yl)-1H-pyrazol-4-yl)-N-methyl-2-(methylsulfonyl)propanamide] | 5.61 | 15 | 0.29 | 314
CN(C(=O)CS(C)(=O)=O)c1cn(-c2cccnc2)nc1Cl [CE2, N-(3-chloro-1-(pyridin-3-yl)-1H-pyrazol-4-yl)-N-methyl-2-(methylsulfonyl)acetamide] | 21.01 | 331 | 0.52 | 643
CS(=O)(=O)CC(=O)Nc1cn(-c2cccnc2)nc1Cl [CE3, N-(3-chloro-1-(pyridin-3-yl)-1H-pyrazol-4-yl)-2-(methylsulfonyl)acetamide] | 25.35 | 421 | 0.05 | −29
CC(C)(C(=O)Nc1cn(-c2cccnc2)nc1Cl)S(C)(=O)=O [CE4, N-(3-chloro-1-(pyridin-3-yl)-1H-pyrazol-4-yl)-2-methyl-2-(methylsulfonyl)propanamide] | 9.72 | 100 | 2.17 | 3000
CC(C(=O)Nc1cn(-c2cccnc2)nc1Cl)S(C)(=O)=O (stereo not drawn) [Molecule F1, N-(3-chloro-1-(pyridin-3-yl)-1H-pyrazol-4-yl)-2-(methylsulfonyl)propanamide] | 4.87 | – | 0.07 | –
